From publication PMC6005845 (Frontiers in Cardiovascular Medicine, 2018)
Read-outs that look alike come from different tables or passages of the source.

Assays:
[1] = Pharmacokinetic analysis and plasma drug concentrations (LC-MS/MS); assay type: in vivo, APOE*3Leiden.CETP mice; conditions: APOE*3Leiden.CETP, mouse, plasma; for AUC(0-t): read-out: AUC0–24
Procedure: Animal experiments were approved by the Institutional Animal Care and Use Committee of The Netherlands Organization for Applied Research under registration number 3557.
PK analysis and plasma drug concentrations
EDTA plasma samples collected during the 24-hour PK study and at week 16 of the (cardio)vascular risk factor-atherosclerosis study were subsequently stored at -80°C until analysis. Thawed plasma samples (50μL) were de-proteinized with two volumes of acetonitrile containing an appropriate src-inhibitor chemotype as internal standard for each analyte.
Following deproteinization, a 5μL portion of clear supernatant was then subjected to solvent gradient separation in an Agilent 1100 series HPLC system interfaced to a Micromass triple-quadrupole mass spectrometer, which was operated in the positive ion electrospray MRM mode to obtain daughter ions for quantitation: Ion transitions used for quantitation were as follows: […]
curves ranging from 1 nM to 6 uM were fitted with a quadratic regression weighted by reciprocal concentration (1/x). LLOQ for the purposes of this assay was between 1 and 2 nM for all compounds analyzed. QC samples at three levels in the range of the standard curve were used to accept individual analytical sets, and all results were calculated as the mean of triplicate determinations ± standard error. Tmax, Cmax and AUCs were calculated using the software Berkeley Madonna (version 8.3.18). […]

[2] = tested on: SAA; experiment: Plasma SAA ELISA; assay type: in vivo, APOE*3Leiden.CETP mice; conditions: for SAA: after 16 weeks of treatment
Excerpt: (§1) Pouwer et al Supplementary material […]
The inflammatory markers SAA, E-selectin and MCP-
according to the manufacturer’s instruction. […]

[3] = tested on: APOE*3Leiden.CETP mice; experiment: Blood pressure and heart rate (tail cuff); assay type: in vivo; conditions: after 2 and 15 weeks of treatment, all dose groups, vs control
Excerpt: as §1

[4] = tested on: peripheral blood mononuclear cells; experiment: Flow cytometric analysis (FACS) of PBMCs and monocyte subsets; conditions: for CD11b+Ly6Clow / Number of live/single PBMCs per mL blood / CD11b+Ly6Chigh: after 12 weeks; for change of number of circulating PBMCs vs control: at 12 weeks
[5] = tested on: APOE*3Leiden.CETP mice; experiment: Plaque composition and lesion stability index in severe (type IV-V) lesions; assay type: in vivo; conditions: 16 weeks
Procedure: The macrophage and necrosis content were quantified as factors that decrease plaque stability, and smooth muscle cell area in the cap of the lesions and collagen as factors that improve plaque stability ([17, 35, 36]) (Figure 6A). […]
µm thick with intervals of 50 µm) were taken and mounted on AAS-coated slides. These sections were stained with hematoxylin-phloxine-saffron (HPS) for histological analysis. For each mouse, atherosclerosis was measured in 4 subsequent cross sections. Each section consisted of 3 segments. The average total lesion area per cross section was then calculated20
22. For determination of lesion severity the lesions were classified into five categories according to the American Heart Association classification 23: 0) no lesion I) early fatty streak, II) regular fatty streak, III) mild plaque, IV) moderate plaque, and V) severe plaque. The percentage of each lesion type was calculated, where type I-III lesions were classified as mild lesions and type IV-V lesions were classified as severe lesions 20 22. In the aortic root, lesion composition was determined for the severe lesions (type IV -V) as a percentage of lesion area after immunostaining with anti-human alpha-actin (1:400; PROGEN Biotechnik GmbH, Germany) for smooth muscle cells (SMC), and anti -mouse Mac-3 (1:50; BD Pharmingen, the Netherlands) for macrophages followed by Sirius Red staining. After Sirius Red staining for collagen, color intensity was determined in ImageJ and the used threshold was confirmed by evaluation of the sections under polarized light 24. Necrotic area and cholesterol clefts were measured after HPS staining13 20 22. Lesion stability index was calculated as described pre viously13 20. […]

[6] = tested on: liver; experiment: Liver gene expression analysis (RNA sequencing) and pathway analysis; assay type: in vivo, APOE*3Leiden.CETP mice; conditions: vs control, Figure 7: imatinib 150, nilotinib 30, ponatinib 10 mg/kg
Procedure: To find early molecular signatures of other clinically relevant processes induced by the anti-CML drugs, gene expression and pathway analysis was performed in the liver as the central organ in lipid metabolism and synthesis of coagulation factors. To identify drug-specific molecular responses and overlap between the various treatments, the total number of differentially expressed genes (DEG) was assessed and a Venn-diagram was constructed comprising all DEG compared to control group. […]
Messenger RNA was isolated from liver of 8 mice per group, using the NEBNext Ultra RNA
sample Prep Kit. After fragmentation of the mRNA, cDNA synthesis was performed. The

[7] = tested on: AST; experiment: Plasma AST (pooled samples); conditions: after 16 weeks
[8] = po, repeated dose, QD, 3 mg/kg, after 16 weeks
[9] = po, repeated dose, QD, 10 mg/kg, after 16 weeks
[10] = po, repeated dose, BID, 150 mg/kg, after 16 weeks
[11] = po, repeated dose, QD, 30 mg/kg, after 16 weeks

## Cc1ccc(C(=O)Nc2ccc(CN3CCN(C)CC3)c(C(F)(F)F)c2)cc1C#Cc1cnc2cccnn12 [Ponatinib, ponatinib]
[1]; [8]
  Cmax: 140 ng/mL
  Tmax: 6.72 h
  AUC(0-t): 2430 ng·h/mL
[1]; [9]
  Cmax: 460 ng/mL
  Tmax: 6.73 h
  AUC(0-t): 8110 ng·h/mL
[1]; single oral gavage, 5 mg/kg
  Cmax: 190 ng/mL
  Tmax: 8 h
  AUC(0-t): 3240 ng·h/mL
[2]; 3 mg/kg QD
  SAA: 10.4 ± 1.9 µg/mL
[2]; 10 mg/kg QD
  SAA: 15.2 ± 21.1 µg/mL
[3]
  effect on heart rate: not affected
  effect on systolic blood pressure (SBP): not affected
[4]; 3 mg/kg
  CD11b+Ly6Clow: 58.4 ± 2.5 % of monocyte population
  Number of live/single PBMCs per mL blood: 7.1 ± 1.7 *106 /mL
[4]; 10 mg/kg QD (high-dose), p = 0.003
  change of number of circulating PBMCs vs control: −44%
[4]; 10 mg/kg
  CD11b+Ly6Clow: 69.1 ± 6.4 % of monocyte population
  Number of live/single PBMCs per mL blood: 3.8 ± 0.8 *106 /mL
[5]; 3 mg/kg
  effect on plaque stability: without affecting plaque stability
[5]; 3 mg/kg, p = 0.001
  change of necrotic core content vs control: −58%
[6]
  gene expression of F7: increased
  gene expression of Klkb1: increased
  gene expression of Kng1a: increased
  gene expression of Tpa: decreased
  gene expression of Upa: decreased
[7]; 3 mg/kg
  AST: 196 U/L
[7]; 10 mg/kg
  AST: 207 U/L

## Cc1ccc(NC(=O)c2ccc(CN3CCN(C)CC3)cc2)cc1Nc1nccc(-c2cccnc2)n1 [Imatinib, imatinib]
[1]; [10]
  Cmax: 11100 ng/mL
  Tmax: 2.47 h
  AUC(0-t): 78100 ng·h/mL
[1]; single oral gavage, 100 mg/kg
  Cmax: 5290 ng/mL
  Tmax: 2.28 h
  AUC(0-t): 32800 ng·h/mL
[2]; 150 mg/kg BID, 16 weeks
  effect on plasma SAA: None of the inflammatory markers were significantly altered
[2]; 150 mg/kg BID
  SAA: 9.6 ± 0.5 µg/mL
[3]
  effect on heart rate: not affected
  effect on systolic blood pressure (SBP): not affected
[4]; 150 mg/kg BID
  CD11b+Ly6Chigh: 11.0 ± 3.6 % of monocyte population
  CD11b+Ly6Clow: 69.1 ± 5.9 % of monocyte population
  Number of live/single PBMCs per mL blood: 3.9 ± 1.3 *106 /mL
[4]; 150 mg/kg BID, p = 0.006
  change of number of circulating PBMCs vs control: −42%
[5]; 150 mg/kg BID, p = 0.004
  increase of collagen content of severe lesions vs control: 47%
[5]; 150 mg/kg BID, p = 0.050 (tended to increase)
  change of αSMC content vs control: +38%
[5]; 150 mg/kg BID, type IV-V lesions
  collagen content (percentage of total plaque area): 62 ± 17%
[6]
  gene expression of Protein C: up-regulated
  gene expression of Protein S: down-regulated
  gene expression of Serpina1 (PAI-1): up-regulated
  gene expression of Tpa: down-regulated
  gene expression of Upa: down-regulated
[7]; 150 mg/kg BID
  AST: 147 U/L

## Cc1cn(-c2cc(NC(=O)c3ccc(C)c(Nc4nccc(-c5cccnc5)n4)c3)cc(C(F)(F)F)c2)cn1 [Nilotinib, nilotinib]
[1]; [9]
  Cmax: 2300 ng/mL
  Tmax: 3.17 h
  AUC(0-t): 24600 ng·h/mL
[1]; [11]
  Cmax: 6890 ng/mL
  Tmax: 3.17 h
  AUC(0-t): 73800 ng·h/mL
[1]; single oral gavage, 50 mg/kg
  Cmax: 11000 ng/mL
  Tmax: 3.26 h
  AUC(0-t): 117000 ng·h/mL
[2]; 10 mg/kg QD
  SAA: 10.6 ± 1.0 µg/mL
[2]; 30 mg/kg QD
  SAA: 10.6 ± 1.1 µg/mL
[3]
  effect on heart rate: not affected
  effect on systolic blood pressure (SBP): not affected
[4]; 10 mg/kg
  CD11b+Ly6Chigh: 27.5 ± 4.3 % of monocyte population
  CD11b+Ly6Clow: 61.4 ± 4.8 % of monocyte population
  Number of live/single PBMCs per mL blood: 6.5 ± 2.4 *106 /mL
[4]; 30 mg/kg
  CD11b+Ly6Chigh: 11.4 ± 3.8 % of monocyte population
  CD11b+Ly6Clow: 73.2 ± 4.9 % of monocyte population
  Number of live/single PBMCs per mL blood: 6.4 ± 1.4 *106 /mL
[5]; 10 mg/kg, p = 0.003
  change of collagen content vs control: −32%
  change of lesion stability index vs control: −43%
[6]
  gene expression of F5: down-regulation
  gene expression of F9: down-regulation
  gene expression of Protein S: down-regulation
  gene expression of Serpina1 (PAI-1): up-regulated
[7]; 10 mg/kg
  AST: 210 U/L
[7]; 30 mg/kg
  AST: 221 U/L
